Measurements: patent publication US9029391B2 (priority 2011, dated 2015)
Counter-ions that a name gives are not always drawn.

System: HIV
Assay: MT4 Assay (anti-HIV activity)
Type: cell-based
Settings: Human immunodeficiency virus 1, 96 h, read-out: HIV MT4 Assay IC50, HTLV-1 transformed cell line MT-4, cell titer glo, 10 point dose response curve
Method: Antiviral HIV activity and cytotoxicity values for compounds of the invention from Table 1 were measured in parallel in the HTLV-1 transformed cell line MT-4 based on the method previously described (Hazen et al., 2007, In vitro antiviral activity of the novel, tyrosyl-based human immunodeficiency virus (HIV) type 1 protease inhibitor brecanavir (GW640385) in combination with other antiretrovirals and against a panel of protease inhibitor-resistant HIV (Hazen et al., “In vitro antiviral activity of the novel, tyrosyl-based human immunodeficiency virus (HIV) type 1 protease inhibitor brecanavir (GW640385) in combination with other antiretrovirals and against a panel of protease inhibitor-resistant HIV”, Antimicrob. Agents Chemother. 2007, 51: 3147-3154; and Pauwels et al., “Sensitive and rapid assay on MT-4 cells for the detection of antiviral compounds against the AIDS virus”, J. of Virological Methods 1987, 16: 171-185).
Luciferase activity was measured 96 hours later by adding a cell titer glo (Promega, Madison, Wis.). Percent inhibition of cell protection data was plotted relative to no compound control. Under the same condition, cytotoxicity of the compounds was determined using cell titer glo (Promega, Madison, Wis.). IC50s were determined from a 10 point dose response curve using 3-4-fold serial dilution for each compound, which spans a concentration range >1000 fold.

Compound | IC50 [nM]
Cc1c(-c2c([C@H](OC3(C)CCC3)C(=O)O)n(C)c(=O)c3ccccc23)cc(F)c2c1CCCO2 (atropisomer, axis not shown; (M)) [Example 163, (2S)(M)-2-[4-(8-fluoro-5-methyl-3,4-dihydro-2H-1-benzopyran-6-yl)-2-methyl-1-oxo-1,2-dihydroisoquinolin-3-yl]-2-(1-methylcyclobutoxy)acetic acid] | 110
Cc1c(-c2c([C@H](OC(C)(C)C)C(=O)O)n(C)c(=O)c3cc(Br)ccc23)cc(F)c2c1CCCO2 (atropisomer, axis not shown; (M)) [Example 164, (2S)(M)-[7-bromo-4-(8-fluoro-5-methyl-3,4-dihydro-2H-chromen-6-yl)-2-methyl-1-oxo-1,2-dihydro-3-isoquinolinyl][(1,1-dimethylethyl)oxy]ethanoic acid] | 460
Cc1c(-c2c([C@H](OC(C)(C)C)C(=O)O)n(C)c(=O)c3cc(Nc4ccc(Cl)c(F)c4)ccc23)cc(F)c2c1CCCO2 (atropisomer, axis not shown; (M)) [Example 165, (2S)(M)-[7-[(4-chloro-3-fluorophenyl)amino]-4-(8-fluoro-5-methyl-3,4-dihydro-2H-chromen-6-yl)-2-methyl-1-oxo-1,2-dihydro-3-isoquinolinyl][(1,1-dimethylethyl)oxy]ethanoic acid] | 100
Cc1c(-c2c([C@H](OC(C)(C)C)C(=O)O)n(C)c(=O)c3cc(N4CCCCC4)ccc23)cc(F)c2c1CCCO2 (atropisomer, axis not shown; (M)) [Example 166, (2S)(M)-[(1,1-dimethylethyl)oxy][4-(8-fluoro-5-methyl-3,4-dihydro-2H-chromen-6-yl)-2-methyl-1-oxo-7-(1-piperidinyl)-1,2-dihydro-3-isoquinolinyl]ethanoic acid] | 20
Cc1c(-c2c([C@H](OC(C)(C)C)C(=O)O)n(C)c(=O)c3cc(N4CCS(=O)(=O)CC4)ccc23)cc(F)c2c1CCCO2 (atropisomer, axis not shown; (M)) [Example 167, (2S)(M)-[(1,1-dimethylethyl)oxy][7-(1,1-dioxido-4-thiomorpholinyl)-4-(8-fluoro-5-methyl-3,4-dihydro-2H-chromen-6-yl)-2-methyl-1-oxo-1,2-dihydro-3-isoquinolinyl]ethanoic acid] | 3710
Cc1c(-c2c([C@H](OC(C)(C)C)C(=O)O)n(C)c(=O)c3cc(N4CCOCC4)ccc23)cc(F)c2c1CCCO2 (atropisomer, axis not shown; (M)) [Example 168, (S)(M)-2-(tert-butoxy)-2-(4-(8-fluoro-5-methylchroman-6-yl)-2-methyl-7-morpholino-1-oxo-1,2-dihydroisoquinolin-3-yl)acetic acid] | 260
Cc1c(-c2c([C@H](OC(C)(C)C)C(=O)O)n(C)c(=O)c3cc(C(=O)N4CCOCC4)ccc23)cc(F)c2c1CCCO2 (atropisomer, axis not shown; (M)) [Example 169, (S)(M)-2-(tert-butoxy)-2-(4-(8-fluoro-5-methylchroman-6-yl)-2-methyl-7-(morpholine-4-carbonyl)-1-oxo-1,2-dihydroisoquinolin-3-yl)acetic acid] | 22500
Cc1cccc(-c2ccc3c(-c4cc(F)c5c(c4C)CCCO5)c([C@H](OC(C)(C)C)C(=O)O)n(C)c(=O)c3c2)n1 (atropisomer, axis not shown; (M)) [Example 173, (2S)(M)-[(1,1-dimethylethyl)oxy][4-(8-fluoro-5-methyl-3,4-dihydro-2H-chromen-6-yl)-2-methyl-7-(6-methyl-2-pyridinyl)-1-oxo-1,2-dihydro-3-isoquinolinyl]ethanoic acid] | 120
Cc1c(-c2c([C@H](OC(C)(C)C)C(=O)O)n(C)c(=O)c3cc(CC(C)C)ccc23)cc(F)c2c1CCCO2 (atropisomer, axis not shown; (M)) [Example 174, (2S)(M)-[(1,1-dimethylethyl)oxy][4-(8-fluoro-5-methyl-3,4-dihydro-2H-chromen-6-yl)-2-methyl-7-(2-methylpropyl)-1-oxo-1,2-dihydro-3-isoquinolinyl]ethanoic acid] | 50
Cc1c(-c2c([C@H](OC(C)(C)C)C(=O)O)n(C)c(=O)c3cc(Cc4ccccc4)ccc23)cc(F)c2c1CCCO2 (atropisomer, axis not shown; (M)) [Example 175, (2S)(M)-[(1,1-dimethylethyl)oxy][4-(8-fluoro-5-methyl-3,4-dihydro-2H-chromen-6-yl)-2-methyl-1-oxo-7-(phenylmethyl)-1,2-dihydro-3-isoquinolinyl]ethanoic acid] | 70
Cc1c(-c2c([C@H](OC(C)(C)C)C(=O)O)n(C)c(=O)c3cc(CCc4ccccc4)ccc23)cc(F)c2c1CCCO2 (atropisomer, axis not shown; (M)) [Example 176, (2S)(M)-[(1,1-dimethylethyl)oxy][4-(8-fluoro-5-methyl-3,4-dihydro-2H-chromen-6-yl)-2-methyl-1-oxo-7-(2-phenylethyl)-1,2-dihydro-3-isoquinolinyl]ethanoic acid] | 50
Cc1c(-c2c([C@H](OC(C)(C)C)C(=O)O)n(C)c(=O)c3cc(CN4CCOCC4)ccc23)cc(F)c2c1CCCO2 (atropisomer, axis not shown; (M)) [Example 189, (S)(M)-2-(tert-butoxy)-2-(4-(8-fluoro-5-methylchroman-6-yl)-2-methyl-7-(morpholinomethyl)-1-oxo-1,2-dihydroisoquinolin-3-yl)acetic acid] | 40
Cc1c(-c2c([C@H](OC(C)(C)C)C(=O)O)n(C)c(=O)c3cc(CN4CCCCC4)ccc23)cc(F)c2c1CCCO2 (atropisomer, axis not shown; (M)) [Example 190, (S)(M)-2-(tert-butoxy)-2-(4-(8-fluoro-5-methylchroman-6-yl)-2-methyl-1-oxo-7-(piperidin-1-ylmethyl)-1,2-dihydroisoquinolin-3-yl)acetic acid, Trifluoroacetic acid salt] | 320
Cc1c(-c2c([C@H](OC(C)(C)C)C(=O)O)n(C)c(=O)c3cc(-c4ccoc4)ccc23)cc(F)c2c1CCCO2 (atropisomer, axis not shown; (M)) [Example 194, (2S)(M)-[(1,1-dimethylethyl)oxy][4-(8-fluoro-5-methyl-3,4-dihydro-2H-chromen-6-yl)-7-(3-furanyl)-2-methyl-1-oxo-1,2-dihydro-3-isoquinolinyl]ethanoic acid] | 40
Cc1c(-c2c([C@H](OC(C)(C)C)C(=O)O)n(C)c(=O)c3cc(-c4ccnn4C)ccc23)cc(F)c2c1CCCO2 (atropisomer, axis not shown; (M)) [Example 195, (2S)(M)-[(1,1-dimethylethyl)oxy][4-(8-fluoro-5-methyl-3,4-dihydro-2H-chromen-6-yl)-2-methyl-7-(1-methyl-1H-pyrazol-5-yl)-1-oxo-1,2-dihydro-3-isoquinolinyl]ethanoic acid] | 140
Cc1n[nH]c(C)c1-c1ccc2c(-c3cc(F)c4c(c3C)CCCO4)c([C@H](OC(C)(C)C)C(=O)O)n(C)c(=O)c2c1 (atropisomer, axis not shown; (M)) [Example 196, (2S)(M)-[(1,1-dimethylethyl)oxy][7-(3,5-dimethyl-1H-pyrazol-4-yl)-4-(8-fluoro-5-methyl-3,4-dihydro-2H-chromen-6-yl)-2-methyl-1-oxo-1,2-dihydro-3-isoquinolinyl]ethanoic acid] | 1160
Cc1c(-c2c([C@H](OC(C)(C)C)C(=O)O)n(C)c(=O)c3cc(-c4cn[nH]c4)ccc23)cc(F)c2c1CCCO2 (atropisomer, axis not shown; (M)) [Example 197, (2S)(M)-[(1,1-dimethylethyl)oxy][4-(8-fluoro-5-methyl-3,4-dihydro-2H-chromen-6-yl)-2-methyl-1-oxo-7-(1H-pyrazol-4-yl)-1,2-dihydro-3-isoquinolinyl]ethanoic acid] | 1460
COc1ccc(-c2ccc3c(-c4cc(F)c5c(c4C)CCCO5)c([C@H](OC(C)(C)C)C(=O)O)n(C)c(=O)c3c2)cn1 (atropisomer, axis not shown; (M)) [Example 198, (2S)(M)-[(1,1-dimethylethyl)oxy]{4-(8-fluoro-5-methyl-3,4-dihydro-2H-chromen-6-yl)-2-methyl-7-[6-(methyloxy)-3-pyridinyl]-1-oxo-1,2-dihydro-3-isoquinolinyl}ethanoic acid] | 40
Cc1c(-c2c([C@H](OC(C)(C)C)C(=O)O)n(C)c(=O)c3cc(-c4ccc(N(C)C)cc4)ccc23)cc(F)c2c1CCCO2 (atropisomer, axis not shown; (M)) [Example 199, (2S)(M)-[7-[4-(dimethylamino)phenyl]-4-(8-fluoro-5-methyl-3,4-dihydro-2H-chromen-6-yl)-2-methyl-1-oxo-1,2-dihydro-3-isoquinolinyl][(1,1-dimethylethyl)oxy]ethanoic acid] | 90

Same assay, conditions: read-out: HIV MT4 Assay IC50; HTLV-1 transformed cell line MT-4; 96 hours; cell titer glo; 10 point dose response curve

Compound | IC50 [nM]
Cc1c(-c2c([C@H](OC(C)(C)C)C(=O)O)n(C)c(=O)c3ccccc23)cc(F)c2c1CCCO2 (atropisomer, axis not shown; (M)) [Example 159, (2S)(M)-2-(tert-butoxy)-2-(4-(8-fluoro-5-methylchroman-6-yl)-2-methyl-1-oxo-1,2-dihydroisoquinolin-3-yl)acetic acid] | 30
